# Active and inactive are the calls of the source.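 Rule for the calls: active = compounds whose fitted half-maximal concentration in the cell-protection dose series is at or below a set limit; inactive = the rest.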
# System: H9c2 cardiomyocytes, 2-deoxyglucose stress, ATP luminescence, 2 h
# Test: H9c2 cell survival under 2-deoxyglucose stress – uHTS hits, dose response (AID 588780)
row,Structure (SMILES),IC50
1,Cc1cc(CNC(=O)COC(=O)Cn2[nH]c(=O)c3ccccc3c2=O)cc(C)c1O,15.4 µM
2,CCOC(=O)C1=c2s/c(=C\c3ccncc3)c(=O)n2C(N)=C(C(=O)OC)C1c1ccncc1 (stereo not drawn),> 79 µM (inactive)
3,Fc1ccc(-c2ccc(-c3nn4c(-c5ccco5)nnc4s3)o2)cc1,> 79 µM (inactive)
4,O=C(Nc1nc(-c2ccccn2)cs1)c1ccc(-c2ccccc2F)o1,> 79 µM (inactive)
5,COc1ccc(C=CC(=O)c2ccc3cc(OC)c(OC)cc3c2)cc1OC,> 79 µM (inactive)
6,CN(C)S(=O)(=O)c1ccc2[nH]cc(/C=C/c3nc4ccccc4c(=O)n3-c3ccccc3)c2c1,> 79 µM (inactive)
7,Cc1cc(C)n(-c2ccc3cccc(NS(C)(=O)=O)c3n2)n1,> 79 µM (inactive)
8,COc1ccccc1NC(=O)COc1ccc(C(=O)OCC(=O)NC(C)(C)C)cc1OC,17.6 µM
9,CCOc1ccc(NC(=O)c2cc3c(=O)n(C)c4ccccc4c3n2C)cc1,11.5 µM
10,O=C(Nc1nc2ccccc2n1Cc1ccccc1)c1ccco1,14.7 µM
11,COc1cccc(Nc2nc3ccccc3n3cnnc23)c1,12.5 µM
12,COc1ccc(-c2cc(=O)oc3c(C)c(O)c(CN(C)C)cc23)cc1,> 79 µM (inactive)
13,Fc1ccc(NC(=S)Nc2ccc3nccnc3c2)cc1,> 79 µM (inactive)
14,N/C(=N\NS(=O)(=O)c1ccccc1)c1ccccn1,> 79 µM (inactive)
15,O=C(COC(=O)Cc1n[nH]c(=O)c2ccccc12)Nc1c(Br)cc([N+](=O)[O-])cc1Br,> 79 µM (inactive)
16,COC(=O)/C=C/c1ccc(OC(=O)OC)c(OC(=O)OC)c1,> 79 µM (inactive)
17,COC(=O)c1cc(Cl)c(NC(=O)/C=C/c2ccc(OC)c(OC)c2)cc1OC,> 79 µM (inactive)
18,CC(C)(C)NC(=O)COC(=O)c1c2c(nc3ccccc13)CCC2,15.1 µM
19,CC1CCCC(C)N1C(=O)COC(=O)c1n[nH]c(=O)c2ccccc12 (stereo not drawn),> 79 µM (inactive)
20,COc1ccc(-c2cc(C(=O)N(C)Cc3ccccc3F)c3ccccc3n2)cc1OC,> 79 µM (inactive)
21,Nc1c(C(=O)N/N=C/c2cccnc2)oc2nc(-c3ccco3)cc(-c3ccco3)c12,> 79 µM (inactive)
22,CNC(=O)/C(C#N)=C/c1c(N(Cc2ccccc2)Cc2ccccc2)nc2ccccn2c1=O,16 µM
23,CCOC(=O)N1CCN(C(=O)CSc2nc3ccccc3c(=O)n2-c2ccccc2)CC1,33.6 µM (inactive)
24,CCc1nc(N2CCN(C(=O)c3ccco3)CC2)c2oc3ccccc3c2n1,> 79 µM (inactive)

row,Structure (SMILES),IC50
1,Cc1cccc(N2CCN(C(=O)CCc3nc4ccccc4c(=O)[nH]3)CC2)c1C,> 79 µM (inactive)
2,NC(=O)C1=C(c2ccccc2)c2ccccc2C1=O,> 79 µM (inactive)
3,COc1cc(OC)c2ccc(=O)oc2c1C(CC(=O)N1CCN(c2ccccc2)CC1)c1ccc2c(c1)OCO2 (stereo not drawn),> 79 µM (inactive)
4,Cc1ccc(NC(=O)CSC(C)C(=O)OCc2cc(=O)oc3cc(O)ccc23)cc1 (stereo not drawn),> 79 µM (inactive)
5,Cc1c(/C=N/NC(=O)c2ccc(O)cc2)c2ccccn2c1C(=O)c1ccc(F)cc1,> 79 µM (inactive)
6,O=C(c1ccccc1)c1ccc2nc(N3CCN(C(=O)c4ccco4)CC3)c3nncn3c2c1,14.9 µM
7,Cc1cc(=O)oc2cc(OCC(=O)N3CCN(C(=O)C4COc5ccccc5O4)CC3)c(Cl)cc12 (stereo not drawn),12.7 µM
8,CCOC(=O)N1CCC(NC(=O)c2cc3c(-c4ccccc4F)nn(C)c3s2)CC1,> 79 µM (inactive)
9,CCOc1ncccc1C(=O)Nc1cccc(-c2nc3cccnc3s2)c1,> 79 µM (inactive)
10,O=C(CCc1nc2ccccc2c(=O)[nH]1)Nc1ccc(Cl)c(Cl)c1,20.6 µM
11,COc1ccc2c(c1OC)c(=O)n1c3ccc(OC(C)C(=O)NCCN4CCOCC4)cc3c3ccnc2c31 (stereo not drawn),29.3 µM
12,CCN(CC(=O)Nc1c(F)cccc1F)C(=O)CCc1nc2ccccc2c(=O)[nH]1,> 79 µM (inactive)
13,COc1ccc(-c2cc(C(=O)NNC(=O)c3csc(N4CCOCC4)n3)c3ccccc3n2)cc1,> 79 µM (inactive)
14,CN(C)C(=O)c1ccc(-c2n[nH]c(=O)c3ccccc23)cc1,> 79 µM (inactive)
15,COc1ccc(-c2ccc3[nH]c4c(c3c2)CCN2C[C@H]3[C@H](C)ON(C)[C@H]3C[C@@H]42)cc1,46.8 µM (inactive)
16,CCOC(=O)c1cnc2ccc(C(=O)OC)cc2c1NCCc1ccc(OC)c(OC)c1,> 79 µM (inactive)
17,CC(=O)Nc1cccc(/C(C)=N/NC(=O)c2cccs2)c1,> 79 µM (inactive)
18,COc1ccc(-c2cnc3c(NC=O)cc(-c4cccc(NS(C)(=O)=O)c4)cn23)cc1OC,14.4 µM
19,O=C(COc1ccccc1F)Nc1nc(-c2ccccn2)cs1,> 79 µM (inactive)
20,O=C1Nc2ccccc2C(=O)C1(Cl)Cc1ccccc1 (stereo not drawn),> 79 µM (inactive)
21,O=C(Cc1n[nH]c(=O)c2ccccc12)OCC(=O)c1ccccc1,> 79 µM (inactive)
22,O=c1[nH]c2cc(O)ccc2c2ccccc12,> 79 µM (inactive)
23,Cc1nn(Cc2ccc(C(=O)N3CCN(C(=O)c4ccco4)CC3)o2)c(C)c1[N+](=O)[O-],> 79 µM (inactive)
24,COc1ccc(-n2c(/C=C/c3ccc(O)cc3)nc3ccccc3c2=O)cc1,15.8 µM

# Reference: PubChem BioAssay AID588780 (Sanford-Burnham Center for Chemical Genomics, 2011)
